Read-outs that look alike come from different tables or passages of the source.
Tests used:
[1] = Solubility at room temperature (HPLC isocratic method); assay type: physicochemical
[2] = Hygroscopicity, step isotherm at 25° C.; assay type: physicochemical; conditions: 90-95% RH
Experimental: The hygroscopicity of the mesylate salt was determined at 25° C. using a step isotherm program for relative humidities from 0 to 95% RH following drying at 40° C./0%RH for two hours.

[3] = Stability of the crystal form (XRPD, hot-stage XRPD)
Text: The mesylate salt (Form A) was further studied using hot-stage XRPD. […] The dehydration could also be achieved by suspending the mesylate monohydrate in hot acetonitrile.

Compound | solubility ([1]; aqueous with cosolvent or surfactant or cyclodextrin, thermodynamic from solid, 10% HP-βCD, pH adjusted with 0.1 N HCl to about pH 3, room temperature, read-out: Solubility) | solubility ([1]; aqueous with cosolvent or surfactant or cyclodextrin, thermodynamic from solid, 15% HP-βCD, pH adjusted with 0.1 N HCl to about pH 3, room temperature, read-out: Solubility) | solubility ([1]; aqueous with cosolvent or surfactant or cyclodextrin, thermodynamic from solid, 20% HP-βCD, pH adjusted with 0.1 N HCl to about pH 3, room temperature, read-out: Solubility) | solubility ([1]; aqueous with cosolvent or surfactant or cyclodextrin, thermodynamic from solid, 25% HP-βCD, pH adjusted with 0.1 N HCl to about pH 3, room temperature, read-out: Solubility) | solubility ([1]; aqueous with cosolvent or surfactant or cyclodextrin, thermodynamic from solid, 25% PEG/10% EtOH, room temperature, read-out: Solubility) | solubility ([1]; aqueous with cosolvent or surfactant or cyclodextrin, thermodynamic from solid, 30% PG/10% EtOH, room temperature, read-out: Solubility) | solubility ([1]; organic solvent or mixture, thermodynamic from solid, Ethanol, room temperature, read-out: Solubility) | solubility ([1]; organic solvent or mixture, thermodynamic from solid, IPA, room temperature, read-out: Solubility) | solubility ([1]; organic solvent or mixture, thermodynamic from solid, PEG, room temperature, read-out: Solubility) | solubility ([1]; organic solvent or mixture, thermodynamic from solid, PG, room temperature, read-out: Solubility) | solubility ([1]; thermodynamic from solid, water, room temperature (Table I), read-out: Solubility) | solubility ([1]; water (text b274), read-out: solubility in water) | weight gain [2] | stability of the form under ambient conditions ([3]; ambient conditions overnight) | behaviour of the aqueous solution on aging ([3]; water, aged for two days, recovered solid by XRPD the monohydrate (Form A))
CNC(=O)N1CCN(Cc2ccnc(Nc3ncc(C#N)s3)c2)CC1.CS(=O)(=O)O [mesylate salt (Form A), 1-({2-[(5-cyano-1,3-thiazol-2-yl)amino]pyridin-4-yl}methyl)-4-[(methylamino)carbonyl]piperazin-1-ium methanesulfonate] | 27.1 mg/mL | 35.3 mg/mL | 40.7 mg/mL | 45 mg/mL | 11.6 mg/mL | 13.6 mg/mL | 0.98 mg/mL | 0.64 mg/mL | 1.41 mg/mL | 30.4 mg/mL | 6.65 mg/mL | 4.7 mg/mL | – | – | –
1-({2-[(5-cyano-1,3-thiazol-2-yl)amino]pyridin-. 4-yl}methyl)-4-[(methylamino)carbonyl]piperazin-1-ium methanesulfonate [dehydrated mesylate salt (Form B)] | – | – | – | – | – | – | – | – | – | – | – | – | about 1.2 % wt. | stable | a white precipitate was noticed
